Patent US9555039B2, “Piperidine derivatives and compositions for the inhibition of nicotinamide phosphoribosyltransferase (NAMPT)” (Forma TM, LLC., priority 2011, dated 2017)

Assays:
[1] = biological target: T1, Recombinant His-tagged NAMPT (Homo sapiens, UniProt P43490); test: Biochemical inhibition assay: NAMPT enzymatic reaction, NMN quantified by mass spectrometry; details: 33 nM NAMPT, 1 μM NAM, 100 μM PRPP, 2.5 mM ATP, 30 minutes at room temperature; read-out: Biochem IC50
T1 construct: His; host or cells: E. coli
Outline: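 Reaction 30 min at room temperature with 1 μM NAM, 100 μM PRPP, 2.5 mM ATP (final), quenched with formic acid. NMN quantified by RapidFire electrospray MS, normalized to L-cystathionine; IC50 from percent inhibition versus DMSO.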

A2780 cells = test: In-vitro cell proliferation assay (SRB, 72 hours); type: cell-based; details: Homo sapiens, sulforhodamine B (SRB) assay
Outline: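 Viable cells measured by TCA fixation and SRB staining, absorbance 570 nm; % inhibition vs DMSO control after media-only background subtraction, interpolated between two bracketing concentrations.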

T1 sequence (P43490 whole entry): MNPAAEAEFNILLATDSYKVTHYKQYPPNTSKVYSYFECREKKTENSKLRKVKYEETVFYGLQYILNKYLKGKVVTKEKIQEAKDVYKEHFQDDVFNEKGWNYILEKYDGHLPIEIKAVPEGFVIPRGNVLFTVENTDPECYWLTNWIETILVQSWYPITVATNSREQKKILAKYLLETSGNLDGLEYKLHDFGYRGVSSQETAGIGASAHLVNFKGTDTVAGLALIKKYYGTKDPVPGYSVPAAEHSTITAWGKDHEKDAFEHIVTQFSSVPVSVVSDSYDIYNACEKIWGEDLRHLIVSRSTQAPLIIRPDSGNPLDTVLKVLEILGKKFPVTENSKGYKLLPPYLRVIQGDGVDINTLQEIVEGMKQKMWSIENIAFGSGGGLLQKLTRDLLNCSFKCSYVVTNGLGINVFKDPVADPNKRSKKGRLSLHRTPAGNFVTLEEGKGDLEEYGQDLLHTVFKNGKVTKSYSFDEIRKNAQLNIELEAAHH

Question: Which results are given for `O=C(NCCCCC1CCN(C(=O)c2cc3cnccc3[nH]2)CC1)c1ccc2nccn2c1` [N-{4-[1-({1H-pyrrolo[3,2-c]pyridin-2-yl}carbonyl)piperidin-4-yl]butyl}imidazo[1,2-a]pyridine-6-carboxamide]?
Answer: IC50 [1]: 8.6 nM; IC50 (A2780 cells): 13.1 nM

Question: For `O=C(NCCCCC1CCN(C(=O)c2ccc(C(F)(F)F)cn2)CC1)c1cc2ccncc2s1` [N-[4-(1-{[5-(trifluoromethyl)pyridin-2-yl]carbonyl}piperidin-4-yl)butyl]thieno[2,3-c]pyridine-2-carboxamide], which IC50 [1] is on record?
Answer: Its IC50 is 91.8 nM.

Question: And the IC50 (A2780 cells)?
Answer: The IC50 was 100 to 1000 nM.

Question: `O=C(NCCCCC1CCN(C(=O)c2cccc(Cl)c2Cl)CC1)c1cc2ccncc2s1` [N-(4-{1-[(2,3-dichlorophenyl)carbonyl]piperidin-4-yl}butyl)thieno[2,3-c]pyridine-2-carboxamide] was tested. Which IC50 [1] did it give?
Answer: Its IC50 is 20.1 nM.

Question: And the IC50 (A2780 cells)?
Answer: Its IC50 is 6.7 nM.

Question: What does the source list for `O=C(NCCCCC1CCN(C(=O)c2ccc(F)cn2)CC1)c1ccc2nccn2c1` [N-(4-{1-[(5-fluoropyridin-2-yl)carbonyl]piperidin-4-yl}butyl)imidazo[1,2-a]pyridine-6-carboxamide]?
Answer: IC50 [1]: 74 nM; IC50 (A2780 cells): 67.9 nM

Question: Which IC50 [1] does the source give for `O=C(NCCCCC1CCN(C(=O)c2ccc3[nH]ccc3c2)CC1)c1cc2ccncc2s1` [N-(4-{1-[(1H-indol-5-yl)carbonyl]piperidin-4-yl}butyl)thieno[2,3-c]pyridine-2-carboxamide] here?
Answer: Its IC50 is 42.7 nM.

Question: What about the IC50 (A2780 cells) of the same compound?
Answer: Its IC50 is 71.1 nM.

Question: `Cn1c(C(=O)N2CCC(CCCCNC(=O)c3ccc4nccn4c3)CC2)cc2ccccc21` [N-(4-{1-[(1-methyl-1H-indol-2-yl)carbonyl]piperidin-4-yl}butyl)imidazo[1,2-a]pyridine-6-carboxamide] was tested. Which IC50 [1] did it give?
Answer: Its IC50 is 124 nM.

Question: And the IC50 (A2780 cells)?
Answer: Its IC50 is 55.1 nM.

Question: With `O=C(NCCCCC1CCN(S(=O)(=O)c2ccc(C(F)(F)F)nc2)CC1)c1cc2cnccc2[nH]1` [N-(4-{1-[6-(trifluoromethyl)pyridine-3-sulfonyl]piperidin-4-yl}butyl)-1H-pyrrolo[3,2-c]pyridine-2-carboxamide] as the compound, how does the IC50 [1] read?
Answer: Its IC50 is 81.5 nM.

Question: What about the IC50 (A2780 cells) of the same compound?
Answer: Its IC50 is 29.8 nM.

Question: For `CC(C)c1ncoc1C(=O)N1CCC(CCCCNC(=O)c2ccc3nccn3c2)CC1` [N-[4-(1-{[4-(propan-2-yl)-1,3-oxazol-5-yl]carbonyl}piperidin-4-yl)butyl]imidazo[1,2-a]pyridine-6-carboxamide], which IC50 [1] is on record?
Answer: The IC50 was 27.5 nM.

Question: What about the IC50 (A2780 cells) of the same compound?
Answer: Its IC50 is 8.2 nM.

Question: Which results are given for `Cn1cc(CC(=O)N2CCC(CCCCNC(=O)c3ccc4nccn4c3)CC2)c2ccccc21` [N-(4-{1-[2-(1-methyl-1H-indol-3-yl)acetyl]piperidin-4-yl}butyl)imidazo[1,2-a]pyridine-6-carboxamide]?
Answer: IC50 [1]: 29.5 nM; IC50 (A2780 cells): 21.3 nM

Question: How did the IC50 [1] turn out when `O=C(NCCCCC1CCN(C(=O)c2ccc(OC(F)(F)F)cc2)CC1)c1ccc2nccn2c1` [N-[4-(1-{[4-(trifluoromethoxy)phenyl]carbonyl}piperidin-4-yl)butyl]imidazo[1,2-a]pyridine-6-carboxamide] was run?
Answer: Its IC50 is 91 nM.

Question: And the IC50 (A2780 cells)?
Answer: The IC50 was 100 to 1000 nM.

Question: What does the source list for `COc1ccc(Cl)cc1C(=O)N1CCC(CCCCNC(=O)c2cc3ccncc3s2)CC1` [N-(4-{1-[(5-chloro-2-methoxyphenyl)carbonyl]piperidin-4-yl}butyl)thieno[2,3-c]pyridine-2-carboxamide]?
Answer: IC50 [1]: 14.1 nM; IC50 (A2780 cells): 3.3 nM

Question: Which IC50 [1] does the source give for `Cc1nc(CC(=O)N2CCC(CCCCNC(=O)c3cc4cnccc4[nH]3)CC2)cs1` [N-(4-{1-[2-(2-methyl-1,3-thiazol-4-yl)acetyl]piperidin-4-yl}butyl)-1H-pyrrolo[3,2-c]pyridine-2-carboxamide] here?
Answer: Its IC50 is 49.4 nM.

Question: And the IC50 (A2780 cells)?
Answer: The IC50 was 13.9 nM.

Question: What does the source list for `O=C(NCCCCC1CCN(C(=O)c2ccccc2)CC1)c1ccc2nccn2c1` [N-[4-(1-benzoylpiperidin-4-yl)butyl]imidazo[1,2-a]pyridine-6-carboxamide]?
Answer: IC50 [1]: 5.5 nM; IC50 (A2780 cells): 5.7 nM

Question: `O=C(NCCCCC1CCN(C(=O)c2ccccc2OC(F)(F)F)CC1)c1cc2ccncc2s1` [N-[4-(1-{[2-(trifluoromethoxy)phenyl]carbonyl}piperidin-4-yl)butyl]thieno[2,3-c]pyridine-2-carboxamide] was tested. Which IC50 [1] did it give?
Answer: Its IC50 is 10.4 nM.

Question: And the IC50 (A2780 cells)?
Answer: The IC50 was 3.1 nM.

Question: What does the source list for `Cn1cnc(C(=O)N2CCC(CCCCNC(=O)c3cc4cnccc4[nH]3)CC2)c1` [N-(4-{1-[(1-methyl-1H-imidazol-4-yl)carbonyl]piperidin-4-yl}butyl)-1H-pyrrolo[3,2-c]pyridine-2-carboxamide]?
Answer: IC50 [1]: 93.7 nM; IC50 (A2780 cells): 55 nM

Question: Which IC50 [1] does the source give for `O=C(NCCCCC1CCN(C(=O)c2csc(-c3cccnc3)n2)CC1)c1cc2cnccc2[nH]1` [N-[4-(1-{[2-(pyridin-3-yl)-1,3-thiazol-4-yl]carbonyl}piperidin-4-yl)butyl]-1H-pyrrolo[3,2-c]pyridine-2-carboxamide] here?
Answer: Its IC50 is 81.1 nM.

Question: What about the IC50 (A2780 cells) of the same compound?
Answer: Its IC50 is 14.9 nM.

Question: What does the source list for `Cc1ccc(C(=O)N2CCC(CCCCNC(=O)c3cc4cnccc4[nH]3)CC2)cn1` [N-(4-{1-[(6-methylpyridin-3-yl)carbonyl]piperidin-4-yl}butyl)-1H-pyrrolo[3,2-c]pyridine-2-carboxamide]?
Answer: IC50 [1]: 65.1 nM; IC50 (A2780 cells): 21.3 nM

Question: With `O=C(NCCc1ccc(-c2ccccc2)cc1)c1cc2cnccc2[nH]1` [N-[2-(4-phenylphenyl)ethyl]-1H-pyrrolo[3,2-c]pyridine-2-carboxamide] as the compound, how does the IC50 [1] read?
Answer: Its IC50 is 126 nM.

Question: And the IC50 (A2780 cells)?
Answer: The IC50 was 3980 nM.

Question: Which IC50 [1] does the source give for `O=C(NCCCCC1CCN(C(=O)c2ccc(F)c(F)c2)CC1)c1ccc2nccn2c1` [N-(4-{1-[(3,4-difluorophenyl)carbonyl]piperidin-4-yl}butyl)imidazo[1,2-a]pyridine-6-carboxamide] here?
Answer: Its IC50 is 19 nM.

Question: And the IC50 (A2780 cells)?
Answer: The IC50 was 66.2 nM.

Question: Which results are given for `O=C(NCCCCC1CCN(C(=O)c2ccc(F)cc2)CC1)c1cc2ccncc2s1` [N-(4-{1-[(4-fluorophenyl)carbonyl]piperidin-4-yl}butyl)thieno[2,3-c]pyridine-2-carboxamide]?
Answer: IC50 [1]: 51.8 nM; IC50 (A2780 cells): 100 to 1000 nM

Question: How did the IC50 [1] turn out when `O=C(NCCCCC1CCN(C(=O)c2cc(Cl)cc(Cl)c2)CC1)c1cc2cnccc2[nH]1` [N-(4-{1-[(3,5-dichlorophenyl)carbonyl]piperidin-4-yl}butyl)-1H-pyrrolo[3,2-c]pyridine-2-carboxamide] was run?
Answer: The IC50 was 81.3 nM.

Question: And the IC50 (A2780 cells)?
Answer: The IC50 was 13 nM.

Question: `CCOc1cccc(C(=O)N2CCC(CCCCNC(=O)c3cc4cnccc4[nH]3)CC2)c1` [N-(4-{1-[(3-ethoxyphenyl)carbonyl]piperidin-4-yl}butyl)-1H-pyrrolo[3,2-c]pyridine-2-carboxamide] was tested. Which IC50 [1] did it give?
Answer: Its IC50 is 85.1 nM.

Question: And the IC50 (A2780 cells)?
Answer: Its IC50 is 11 nM.

Question: How did the IC50 [1] turn out when `O=C(NCCCCC1CCN(C(=O)c2cc(Cl)cc(Cl)c2)CC1)c1ccc2nccn2c1` [N-(4-{1-[(3,5-dichlorophenyl)carbonyl]piperidin-4-yl}butyl)imidazo[1,2-a]pyridine-6-carboxamide] was run?
Answer: Its IC50 is 61.6 nM.

Question: And the IC50 (A2780 cells)?
Answer: The IC50 was 32.9 nM.

Question: Which IC50 [1] does the source give for `O=C(NCCCCC1CCN(C(=O)c2ccc(C(F)(F)F)nc2)CC1)c1cc2cnccc2[nH]1` [N-[4-(1-{[6-(trifluoromethyl)pyridin-3-yl]carbonyl}piperidin-4-yl)butyl]-1H-pyrrolo[3,2-c]pyridine-2-carboxamide] here?
Answer: The IC50 was 278 nM.

Question: What about the IC50 (A2780 cells) of the same compound?
Answer: Its IC50 is 47.6 nM.

Question: Which results are given for `Cn1ccc(S(=O)(=O)N2CCC(CCCCNC(=O)c3cc4cnccc4[nH]3)CC2)n1` [N-{4-[1-(1-methyl-1H-pyrazole-3-sulfonyl)piperidin-4-yl]butyl}-1H-pyrrolo[3,2-c]pyridine-2-carboxamide]?
Answer: IC50 [1]: 49.5 nM; IC50 (A2780 cells): 6.8 nM

Question: For `O=C(NCCCCC1CCN(C(=O)c2ccccc2F)CC1)c1cc2ccncc2s1` [N-(4-{1-[(2-fluorophenyl)carbonyl]piperidin-4-yl}butyl)thieno[2,3-c]pyridine-2-carboxamide], which IC50 [1] is on record?
Answer: The IC50 was 8.8 nM.

Question: And the IC50 (A2780 cells)?
Answer: The IC50 was 0.6 nM.

Question: `O=C(NCCCCC1CCN(C(=O)c2ccc(N3CCOCC3)nc2)CC1)c1cc2ccncc2s1` [N-[4-(1-{[6-(morpholin-4-yl)pyridin-3-yl]carbonyl}piperidin-4-yl)butyl]thieno[2,3-c]pyridine-2-carboxamide] was tested. Which IC50 [1] did it give?
Answer: Its IC50 is 30.1 nM.

Question: And the IC50 (A2780 cells)?
Answer: The IC50 was 13.1 nM.

Question: What does the source list for `O=C(NCCC1CCN(S(=O)(=O)c2ccccc2)CC1)c1cc2cnccc2[nH]1` [N-{2-[1-(benzenesulfonyl)piperidin-4-yl]ethyl}-1H-pyrrolo[3,2-c]pyridine-2-carboxamide]?
Answer: IC50 [1]: 50.9 nM; IC50 (A2780 cells): 1030 nM

Question: How did the IC50 [1] turn out when `CC(=O)N1CCC(C(=O)N2CCC(CCCCNC(=O)c3ccc4nccn4c3)CC2)CC1` [N-(4-{1-[(1-acetylpiperidin-4-yl)carbonyl]piperidin-4-yl}butyl)imidazo[1,2-a]pyridine-6-carboxamide] was run?
Answer: Its IC50 is 39.6 nM.

Question: What about the IC50 (A2780 cells) of the same compound?
Answer: The IC50 was 27.8 nM.

Question: With `O=C(NCCCCC1CCN(C(=O)c2ccc(F)cn2)CC1)c1cc2cnccc2[nH]1` [N-(4-{1-[(5-fluoropyridin-2-yl)carbonyl]piperidin-4-yl}butyl)-1H-pyrrolo[3,2-c]pyridine-2-carboxamide] as the compound, how does the IC50 [1] read?
Answer: Its IC50 is 57.2 nM.

Question: What about the IC50 (A2780 cells) of the same compound?
Answer: The IC50 was 14 nM.

Question: `O=C(NCCCCC1CCN(C(=O)c2ccoc2)CC1)c1cc2ccncc2s1` [N-(4-{1-[(furan-3-yl)carbonyl]piperidin-4-yl}butyl)thieno[2,3-c]pyridine-2-carboxamide] was tested. Which IC50 [1] did it give?
Answer: Its IC50 is 4 nM.

Question: And the IC50 (A2780 cells)?
Answer: Its IC50 is 6 nM.

Question: What does the source list for `CC(C)c1ccc(C(=O)N2CCC(CCCCNC(=O)c3cc4cnccc4[nH]3)CC2)nc1` [N-[4-(1-{[5-(propan-2-yl)pyridin-2-yl]carbonyl}piperidin-4-yl)butyl]-1H-pyrrolo[3,2-c]pyridine-2-carboxamide]?
Answer: IC50 [1]: 163 nM; IC50 (A2780 cells): 14.1 nM

Question: What does the source list for `COc1ccc(C(=O)N2CCC(CCCCNC(=O)c3cc4cnccc4[nH]3)CC2)cc1OC` [N-(4-{1-[(3,4-dimethoxyphenyl)carbonyl]piperidin-4-yl}butyl)-1H-pyrrolo[3,2-c]pyridine-2-carboxamide]?
Answer: IC50 [1]: 68.6 nM; IC50 (A2780 cells): 3 nM

Question: For `O=C(NCCCCC1CCN(C(=O)c2ccc(C(F)(F)F)nc2)CC1)c1ccc2nccn2c1` [N-[4-(1-{[6-(trifluoromethyl)pyridin-3-yl]carbonyl}piperidin-4-yl)butyl]imidazo[1,2-a]pyridine-6-carboxamide], which IC50 [1] is on record?
Answer: The IC50 was 91.9 nM.

Question: What about the IC50 (A2780 cells) of the same compound?
Answer: Its IC50 is 93 nM.
